Drawing on ChEMBL document CHEMBL1130764, “Synthesis of a potent wide-spectrum serotonin-, norepinephrine-, dopamine-reuptake inhibitor (SNDRI) and a species-selective dopamine-reuptake inhibitor based on the gamma-amino alcohol functional group” (Bioorg Med Chem Lett, 1998), this text covers Kd, IC50 and Ki for 14 compounds.

A value given as a limit tells only on which side of the number the result lay.

The target of experiment [1] is T1, Sodium-dependent dopamine transporter (Homo sapiens, UniProt Q01959). The experiment can be described thus: Equilibrium dissociation constant (KD) for Competitive binding between [3H]WIN-35428 and the compound at human transporter-hDAT.
For experiment [2], the target named is Glutamate NMDA receptor. The experiment can be described thus: Inhibition of N-methyl-D-aspartate (NMDA) Receptor, by the displacement of [3H]MK-801 in rat brain membranes. Format: cell membranes. (In general: Loss of bound radioactivity is the signal in a displacement assay; it reports binding, not function.)
The target in experiment [3] is Sodium-dependent noradrenaline transporter (Homo sapiens, UniProt P23975).
Experiment [4] deals with Sodium-dependent dopamine transporter (Rattus norvegicus, UniProt P23977). The experiment can be described thus: Inhibition of [3H]- DA reuptake into rat striatal synaptosomes. In kind it is subcellular, Brain.
In experiment [5] the target is Norepinephrine transporter (Rattus norvegicus, UniProt Q9WTR4). In kind it is subcellular, Hippocampus.
For the next experiment, the species on record is Rattus norvegicus. The experiment can be described thus: Compound was evaluated for Dopamine reuptake inhibition in rat striatal synaptosomes. In kind it is functional, Brain.
The target of experiment [6] is T1, Sodium-dependent dopamine transporter. The experiment can be described thus: Equilibrium dissociation constant (KD) for Competitive binding between [3H]WIN-35428 and the compound at human transporter -hDAT.
The target of experiment [7] is Glutamate NMDA receptor. The experiment can be described thus: Compound was evaluated for noncompetitive inhibition of N-methyl-D-aspartate (NMDA) Receptor by the displacement of [3H]MK-801 in rat brain membranes. Format: cell membranes.

Sequence of Sodium-dependent noradrenaline transporter (P23975 whole entry): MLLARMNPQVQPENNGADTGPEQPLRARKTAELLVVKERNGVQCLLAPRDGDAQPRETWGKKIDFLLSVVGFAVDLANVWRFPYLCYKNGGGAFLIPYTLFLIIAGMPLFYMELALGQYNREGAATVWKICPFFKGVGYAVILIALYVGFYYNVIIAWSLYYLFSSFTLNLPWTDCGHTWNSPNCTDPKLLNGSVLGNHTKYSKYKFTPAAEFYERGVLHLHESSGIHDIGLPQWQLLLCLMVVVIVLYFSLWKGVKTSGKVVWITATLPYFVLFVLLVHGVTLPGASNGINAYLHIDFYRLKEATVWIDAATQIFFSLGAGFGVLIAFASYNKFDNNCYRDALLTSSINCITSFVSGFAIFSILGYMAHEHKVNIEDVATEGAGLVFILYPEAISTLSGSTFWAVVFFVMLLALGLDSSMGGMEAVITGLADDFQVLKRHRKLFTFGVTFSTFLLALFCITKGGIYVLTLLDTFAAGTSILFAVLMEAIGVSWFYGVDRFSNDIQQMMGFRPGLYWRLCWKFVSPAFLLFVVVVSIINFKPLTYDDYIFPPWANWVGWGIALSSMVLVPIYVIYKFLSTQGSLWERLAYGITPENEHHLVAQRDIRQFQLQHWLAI
T1 sequence (Q01959 whole entry): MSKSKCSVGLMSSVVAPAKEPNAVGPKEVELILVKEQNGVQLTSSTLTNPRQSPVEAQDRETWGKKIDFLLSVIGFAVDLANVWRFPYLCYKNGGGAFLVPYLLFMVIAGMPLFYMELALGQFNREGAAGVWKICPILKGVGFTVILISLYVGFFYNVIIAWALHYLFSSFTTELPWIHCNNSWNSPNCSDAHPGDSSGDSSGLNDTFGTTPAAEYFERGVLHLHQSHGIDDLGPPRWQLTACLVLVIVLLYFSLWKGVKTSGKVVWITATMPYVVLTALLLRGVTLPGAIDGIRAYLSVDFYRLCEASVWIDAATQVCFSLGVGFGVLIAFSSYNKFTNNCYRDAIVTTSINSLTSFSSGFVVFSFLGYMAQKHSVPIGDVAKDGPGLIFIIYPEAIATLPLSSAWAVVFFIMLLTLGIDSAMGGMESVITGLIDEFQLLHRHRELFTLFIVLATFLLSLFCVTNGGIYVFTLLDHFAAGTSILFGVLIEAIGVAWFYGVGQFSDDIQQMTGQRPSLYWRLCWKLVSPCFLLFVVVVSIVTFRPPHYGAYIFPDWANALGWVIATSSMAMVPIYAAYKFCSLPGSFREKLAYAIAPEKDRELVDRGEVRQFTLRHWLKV
Sequence of Norepinephrine transporter (Q9WTR4 whole entry): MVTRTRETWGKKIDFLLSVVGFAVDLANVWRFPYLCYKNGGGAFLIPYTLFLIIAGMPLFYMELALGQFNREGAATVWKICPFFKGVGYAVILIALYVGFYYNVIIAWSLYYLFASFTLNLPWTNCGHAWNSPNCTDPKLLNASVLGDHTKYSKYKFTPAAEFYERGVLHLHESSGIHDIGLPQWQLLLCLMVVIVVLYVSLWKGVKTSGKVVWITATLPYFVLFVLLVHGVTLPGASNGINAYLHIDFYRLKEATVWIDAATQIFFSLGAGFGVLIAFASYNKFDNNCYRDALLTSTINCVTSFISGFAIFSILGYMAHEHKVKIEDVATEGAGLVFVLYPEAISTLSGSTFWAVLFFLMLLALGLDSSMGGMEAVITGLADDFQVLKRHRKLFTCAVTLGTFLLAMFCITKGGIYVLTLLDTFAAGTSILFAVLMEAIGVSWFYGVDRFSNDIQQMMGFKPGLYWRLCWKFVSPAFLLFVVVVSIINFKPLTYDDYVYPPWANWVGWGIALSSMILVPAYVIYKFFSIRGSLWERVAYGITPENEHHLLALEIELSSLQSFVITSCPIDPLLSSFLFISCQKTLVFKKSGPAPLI
Sequence of Sodium-dependent dopamine transporter (Rattus norvegicus, UniProt P23977) (P23977 whole entry): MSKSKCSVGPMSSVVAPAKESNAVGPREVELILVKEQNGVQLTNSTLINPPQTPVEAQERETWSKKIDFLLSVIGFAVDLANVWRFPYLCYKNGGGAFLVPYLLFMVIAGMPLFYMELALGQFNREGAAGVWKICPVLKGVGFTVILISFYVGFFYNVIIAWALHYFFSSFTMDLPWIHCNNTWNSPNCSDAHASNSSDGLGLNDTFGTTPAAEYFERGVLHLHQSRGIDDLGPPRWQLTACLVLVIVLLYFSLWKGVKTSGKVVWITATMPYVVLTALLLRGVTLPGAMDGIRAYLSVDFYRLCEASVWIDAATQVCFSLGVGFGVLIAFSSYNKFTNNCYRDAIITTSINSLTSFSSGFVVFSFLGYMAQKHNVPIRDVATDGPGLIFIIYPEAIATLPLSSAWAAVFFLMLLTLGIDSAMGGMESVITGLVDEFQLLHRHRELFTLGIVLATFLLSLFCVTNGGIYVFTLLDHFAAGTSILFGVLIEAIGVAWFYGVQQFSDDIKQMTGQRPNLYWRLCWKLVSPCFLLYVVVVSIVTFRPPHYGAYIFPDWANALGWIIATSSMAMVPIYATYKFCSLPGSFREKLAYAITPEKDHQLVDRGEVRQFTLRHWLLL

As usually defined, the Kd is a measure of binding affinity in units of concentration. A low value points to higher affinity. Broadly, the IC50 is the point on the concentration scale where inhibition reaches its midpoint. High values mean weaker potency, low ones greater potency. For `CN(C)C[C@@H](c1ccc2ccccc2c1)[C@@H](O)c1ccccc1` (racemic), the affinity in experiment [1], expressed as Kd, was 0.07 µM. The compound also gave a 50% inhibitory concentration (IC50) on Glutamate NMDA receptor [2] of 143 µM.

As usually defined, the Ki is a dissociation constant, usually derived from enzyme kinetics or from competition with a known ligand. On to `Cc1cc(C)c([C@H](O)[C@@H](CN)c2ccccc2)c(C)c1` (racemic), for which the dissociation constant Kd in experiment [1] turned out to be 0.34 µM; in experiment [3] it was 22.5 µM. Also, at Glutamate NMDA receptor [2], the IC50 worked out at 63 µM. The Ki stood at 5.31 µM in experiment [4] and 8.6 µM in experiment [5].

With `CCOc1ccccc1OCC1CNCCO1` (racemic) [VILOXAZINE], the Kd in experiment [1] and in experiment [3] was 0.155 µM each time. Further, the results for the Ki in experiment [4] and in experiment [5] were 48 µM and 0.17 µM, respectively.

As for `NC[C@@H](c1ccc2ccccc2c1)[C@@H](O)c1ccccc1` (racemic), binding in experiment [1] was put at a Kd of 0.14 µM. At Glutamate NMDA receptor [2], this compound displayed an IC50 of 65 µM.

`CC(C)(C)[C@H](O)[C@@H](CN)c1ccc2ccccc2c1` (racemic): the equilibrium dissociation constant (Kd) in experiment [1] amounted to 27 µM; in experiment [3], 0.055 µM; in the experiment listed under Rattus norvegicus it was 0.278 µM. Further, at Glutamate NMDA receptor [2], the half-maximal inhibitory concentration (IC50) stood at 3 µM. In experiment [4], affinity was put at a Ki of 0.12 µM.

As to `CN(C)C[C@@H](c1ccccc1)[C@@H](O)C(C)(C)C` (racemic), the Kd in experiment [1] worked out at 21.4 µM; in experiment [3], 3.43 µM. Moreover, the half-maximal inhibitory concentration (IC50) on Glutamate NMDA receptor [2] came to 121 µM. Further, the figures for the Ki in experiment [4] and in experiment [5] were 1.2 µM and 0.83 µM, respectively.

Take `COc1ccc([C@H](CN(C)C)[C@@H](O)C2CCCCC2)cc1` (racemic): the Kd stood at 3.5 µM in experiment [1] and 1.8 µM in experiment [3]. Besides, the concentration for half-maximal inhibition (IC50) on Glutamate NMDA receptor [2] is over 200 µM. In addition, the Ki in experiment [4] turned out to be 0.64 µM; in experiment [5], 0.22 µM.

As for `CN(C)C[C@@H](c1ccccc1)[C@@H](O)c1ccccc1` (racemic), the Kd is 12 µM in experiment [6] and 2.25 µM in experiment [3]. The IC50 on Glutamate NMDA receptor [7] worked out at 47 µM. The Ki was found to be 1.55 µM in experiment [4] and 0.99 µM in experiment [5].

`CN(C)C[C@@H](c1ccc2ccccc2c1)[C@@H](O)C(C)(C)C` (racemic): the values for the Kd in experiment [1] and in experiment [3] were 0.34 µM and 0.0299 µM, respectively. At Glutamate NMDA receptor [2], this compound showed a concentration for half-maximal inhibition (IC50) of 21 µM. For the same compound, the Ki was found to be 0.06 µM in experiment [4] and 0.01 µM in experiment [5].

Take `Cc1cc(C)c([C@H](O)[C@@H](CN(C)C)c2ccccc2)c(C)c1` (racemic): the values for the Kd in experiment [1] and in experiment [3] were 42 µM and 35.8 µM, respectively. This compound also came in with an IC50 at Glutamate NMDA receptor [2] of over 200 µM. In addition, the Ki came out at 4.88 µM in experiment [4] and 8.5 µM in experiment [5].

`COc1ccc([C@H](CN)[C@@H](O)C2CCCCC2)cc1` (racemic): the figures for the Kd in experiment [1] and in experiment [3] were 4.31 µM and 1.54 µM, respectively. Besides, on Glutamate NMDA receptor [2], the IC50 is 84 µM. In addition, the Ki in experiment [4] was determined as 1.46 µM; in experiment [5], 0.33 µM.

Consider `NC[C@@H](c1ccccc1)[C@@H](O)c1ccccc1` (racemic), for which the Kd in experiment [1] turned out to be 24 µM; in experiment [3], 12.5 µM. The compound further yielded an IC50 at Glutamate NMDA receptor [2] of 5.6 µM. In addition, the inhibition constant (Ki) in experiment [4] came out at 6.6 µM; in experiment [5], 5.78 µM.

For `CCc1nn(CCCN2CCN(c3cccc(Cl)c3)CC2)c(=O)n1CCOc1ccccc1` [NEFAZODONE], the affinity in experiment [4] corresponds to a Ki of 2.38 µM.

With `CC(C)(C)[C@H](O)[C@@H](CN)c1ccccc1` (racemic), the equilibrium dissociation constant (Kd) in experiment [1] was determined as 7.26 µM; in experiment [3], 47.9 µM. The same compound yielded an IC50 at Glutamate NMDA receptor [2] of 14 µM. The Ki in experiment [4] amounted to 4.57 µM; in experiment [5], 3.8 µM.
